Data from patent US12433868B2 (priority 2010, dated 2025).

Columns and labels:
Vaccinia virus (NYCBH) = assay: microbe, parasite or virus in culture; format: cell-based; conditions: Orthopoxvirus vaccinia, Vero
[1] = both, human, in vivo, po, 400 mg
[2] = system: respiratory syncytial virus; format: cell-based
clinical = conditions: both, human, in vivo, po, 400 mg
cytomegalovirus = format: cell-based
[3] = system: Rift Valley fever virus (strain MP12); format: cell-based
Pichinde virus = format: cell-based
Zaire 79 strain of MPX = system: Zaire 79 strain of MPX; parameters: species or system cynomolgus monkeys (Macaca fascicularis); conditions: cynomolgus monkey, in vivo
vaccinia virus (VV) = conditions: read-out: 50% effective concentration [EC50], inhibition of virus replication, in vitro; cited from earlier work
monkeypox = conditions: read-out: 50% effective concentration [EC50], inhibition of virus replication, in vitro; cited from earlier work
camelpox = conditions: read-out: 50% effective concentration [EC50], inhibition of virus replication; cited from earlier work
variola viruses = conditions: read-out: 50% effective concentration [EC50], inhibition of virus replication, in vitro; cited from earlier work
ECTV, VV, or CV = conditions: mouse, in vivo; cited from earlier work
VV = conditions: orally twice a day at 15 or 50 mg/kg of body weight for 5 days; intravenous VV; cited from earlier work
cowpox virus (CV) = conditions: read-out: 50% effective concentration [EC50], inhibition of virus replication, in vitro; cited from earlier work
ectromelia virus (ECTV) = conditions: read-out: 50% effective concentration [EC50], inhibition of virus replication; cited from earlier work

O=C(NN1C(=O)C2C3C=CC(C4CC34)C2C1=O)c1ccc(C(F)(F)F)cc1 (single isomer, unassigned) [Form I, 4-trifluoromethyl-N-(3,3a,4,4a,5,5a,6,6a-octahydro-1,3-dioxo-4,6-ethenocycloprop[f]isoindol-2(1H)-yl)-benzamide]
inhibition at 5 µM (Vaccinia virus (NYCBH); 72 h, read-out: inhibition of vaccinia virus-induced CPE): > 50% | EC50 (Vaccinia virus (NYCBH); read-out: EC50 in the CPE assay): 50 nM | AUC0-τ, Mean [1]: 15624.5 ng·h/mL | AUC0-∞, Mean [1]: 19922.02 ng·h/mL | Cmax, Mean [1]: 1068.9 ng/mL | Tmax, Mean [1]: 3.8 h | t1/2, Mean [1]: 27.446 h | inhibition of replication of unrelated virus [2]: do not inhibit | Cmax (clinical; Median): 1170 ng/mL | Tmax (clinical; Median): 3.5 h | half-life (clinical; t1/2, Median): 25.1 h | inhibition of replication of unrelated virus (cytomegalovirus): do not inhibit | inhibition of replication of unrelated virus [3]: do not inhibit | inhibition of replication of unrelated virus (Pichinde virus): do not inhibit | amount of viral DNA compared to vehicle-treated animals (Zaire 79 strain of MPX): significantly decrease | reduction in the level of virus replication compared to vehicle-treated group (Zaire 79 strain of MPX): more than 1,000 fold | survival (Zaire 79 strain of MPX): survive

O=C(NN1C(=O)C2C3C=CC(C4CC34)C2C1=O)c1ccc(C(F)(F)F)cc1 (single isomer, unassigned) [Form V, 4-trifluoromethyl-N-(3,3a,4,4a,5,5a,6,6a-octahydro-1,3-dioxo-4,6-ethenocycloprop[f]isoindol-2(1H)-yl)-benzamide]
Cmax, Median [1]: 1180 ng/mL | Tmax, Median [1]: 4 h | t1/2, Median [1]: 16.647 h | AUC (clinical; AUC0-τ, Mean): 20100 ng·h/mL | AUC(0-inf) (clinical; AUC0-∞, Mean): 22000 ng·h/mL | Cmax (clinical; Mean): 1230 ng/mL | Tmax (clinical; Mean): 3.8 h | half-life (clinical; t1/2, Mean): 29.2 h

O=C(NN1C(=O)C2C3C=CC(C4CC34)C2C1=O)c1ccc(C(F)(F)F)cc1 (stereo not shown) [ST-246, 4-trifluoromethyl-N-(3,3a,4,4a,5,5a,6,6a-octahydro-1,3-dioxo-4,6-ethenocycloprop[f]isoindol-2(1H)-yl)-benzamide]
EC50 (vaccinia virus (VV)): ≤ 70 nM | EC50 (monkeypox): ≤ 70 nM | EC50 (camelpox): ≤ 70 nM | EC50 (variola viruses): ≤ 70 nM | preventing or reducing mortality (ECTV, VV, or CV): highly effective in preventing or reducing mortality | toxicity in animal models (ECTV, VV, or CV): nontoxic | tail lesions (VV): significantly reduced | EC50 (cowpox virus (CV)): ≤ 70 nM | EC50 (ectromelia virus (ECTV)): ≤ 70 nM
